What is called IC95 is the concentration at which the effect reaches the 95% level. Read a low IC95 as an effect from little substance. A word on the IC50: it is the point on the concentration scale where inhibition reaches its midpoint. A lower IC50 goes with higher potency. Broadly, the Cmax is the maximum level reached in the sampled fluid or tissue. By logP is commonly meant the decadic logarithm of the partition coefficient of the neutral form, usually between octanol and water. Low values mean a more hydrophilic compound, high ones a more lipophilic compound.

Series [1] addresses Human immunodeficiency virus type 1 protease (Human immunodeficiency virus 1) (UniProt Q72874). The experiment in a line: Inhibition of HIV-1 protease in vitro.
In series [2] the target is T1, Human immunodeficiency virus type 1 protease (Human immunodeficiency virus 1, UniProt Q72874).
Series [3] is described as follows: Maximal plasma concentration in dogs at 10mg/kg oral dose 0.05M citric acid. The note with it: dog.
Series [4] in a line: Partition coefficient (logP). The note with it: octanol/water.
Series [5] is described as follows: in vivo. The note with it: dog, po, 10 mg/kg.
For series [6], the target named is T1, Human immunodeficiency virus type 1 protease. The experiment in a line: Concentration required for 50% inhibition of Protease.
Series [7] has as its target Human immunodeficiency virus type 1 protease (Human immunodeficiency virus 1) (UniProt Q72874). The experiment in a line: Concentration required for 95% inhibition of Protease.
For series [8] the target is unchanged. The experiment in a line: Concentration required for 95%Inhibition of Protease.

`CC(C)(C)NC(=O)[C@@H]1CN(Cc2cc3cnccc3o2)CCN1C[C@@H](O)C[C@@H](Cc1ccccc1)C(=O)NC1c2ccccc2C[C@H]1O` (stereo not given in full): it took 6 nM to reach the 95% level in series [1] (IC95). Also, in series [2], the IC50 turned out to be 0.22 nM.
The compound `CCOc1ccc(CN2CCN(C[C@@H](O)C[C@@H](Cc3ccccc3)C(=O)NC3c4ccccc4C[C@H]3O)[C@H](C(=O)NC(C)(C)C)C2)cn1` (stereo not given in full) yielded a Cmax in series [3] of 300 nM. In series [4], this compound had a logP of 3.62. In series [1], this compound returned an IC95 of 100 nM. Half-maximal inhibition in series [2] (IC50) required 3.4 nM.
Turning to `CC(C)(C)NC(=O)[C@@H]1CN(Cc2cnc3occc3c2Cl)CCN1C[C@@H](O)C[C@@H](Cc1ccccc1)C(=O)NC1c2ccccc2C[C@H]1O` (stereo not given in full), the concentration at 8 h in series [5] is 2060 nM. The peak concentration (Cmax) in series [3] was 3940 nM. The compound also came in with an IC95 in series [1] of 15.6 nM. The compound further showed an IC50 in series [2] of 0.25 nM.
`CC(C)(C)NC(=O)C1CN(Cc2cc3cccnc3o2)CCN1CC(O)CC(Cc1ccccc1)C(=O)NC1c2ccccc2CC1O` (stereo not given): the highest level in series [3] (Cmax) was 1170 nM. Besides, the IC95 in series [1] was determined as 50 nM. Further, half-maximal inhibition in series [2] (IC50) required 0.32 nM.
With `CC(C)(C)NC(=O)[C@@H]1CN(Cc2nc3ccccc3[nH]2)CCN1C[C@@H](O)C[C@@H](Cc1ccccc1)C(=O)NC1c2ccccc2C[C@H]1O` (stereo not given in full), it took 200 nM to reach the 95% level in series [1] (IC95). The compound further yielded an IC50 in series [2] of 0.47 nM.
As for `Cc1nn(C)c2ncc(CN3CCN(C[C@@H](O)C[C@@H](Cc4ccccc4)C(=O)NC4c5ccccc5C[C@H]4O)[C@H](C(=O)NC(C)(C)C)C3)c(Cl)c12` (stereo not given in full), the IC50 in series [6] was 0.14 nM. The compound also came in with an IC95 in series [7] of 12.5 nM.
As for `CC(C)(C)NC(=O)[C@@H]1CN(Cc2cnc3ccccc3c2)CCN1C[C@@H](O)C[C@@H](Cc1ccccc1)C(=O)NC1c2ccccc2C[C@H]1O` (stereo not given in full), in series [1], it took 25 nM to reach the 95% level (IC95). In series [2], this compound came in with an IC50 of 0.14 nM.
For the compound `CC(C)(C)NC(=O)[C@@H]1CN(Cc2ccc(Cl)nc2)CCN1C[C@@H](O)C[C@@H](Cc1ccccc1)C(=O)NC1c2ccccc2C[C@H]1O` (stereo not given in full), the log partition coefficient (logP) in series [4] was above 3.84. In addition, the IC95 in series [1] worked out at 12 nM. The compound further returned an IC50 in series [2] of 0.49 nM.
In turn, `CSc1ncccc1CN1CCN(C[C@@H](O)C[C@@H](Cc2ccccc2)C(=O)NC2c3ccccc3C[C@H]2O)[C@H](C(=O)NC(C)(C)C)C1` (stereo not given in full) had an IC95 in series [1] of 15.6 nM. The compound further gave an IC50 in series [2] of 0.26 nM.
Compound `CC(C)(C)NC(=O)[C@@H]1CN(Cc2cc3ccncc3o2)CCN1C[C@@H](O)C[C@@H](Cc1ccccc1)C(=O)NC1c2ccccc2C[C@H]1O` (stereo not given in full) showed a Cmax in series [3] of 36500 nM. This compound had an IC95 in series [1] of 12.5 nM. Also, the IC50 in series [2] was determined as 0.39 nM.
For the compound `Cc1nn(C)c2ncc(CN3CCN(C[C@@H](O)C[C@@H](Cc4ccccc4)C(=O)NC4c5ccccc5C[C@H]4O)[C@H](C(=O)NC(C)(C)C)C3)cc12` (stereo not given in full), in series [3], the Cmax amounted to 190 nM. The same compound registered an IC50 in series [6] of 0.35 nM. In addition, the concentration for an effect of 95% (IC95) in series [7] stood at 6 nM.
In turn, `CC(C)(C)NC(=O)C1CN(Cc2csc3ncccc23)CCN1CC(O)CC(Cc1ccccc1)C(=O)NC1c2ccccc2CC1O` (stereo not given) gave a peak concentration (Cmax) in series [3] of 230 nM. Half-maximal inhibition in series [6] (IC50) was put at 0.2 nM. Further, the 95% effect level in series [8] (IC95) was put at 6 nM.
For `CC(C)(C)NC(=O)[C@@H]1CN(Cc2cccnc2)CCN1C[C@@H](O)C[C@@H](Cc1ccccc1)C(=O)N[C@H]1c2ccccc2C[C@H]1O`, it took 50 nM to reach the 95% level in series [1] (IC95).
As for `CCOC(=O)c1cnc2oc(CN3CCN(CC(O)CC(Cc4ccccc4)C(=O)NC4c5ccccc5CC4O)C(C(=O)NC(C)(C)C)C3)cc2c1` (stereo not given), in series [6], the IC50 was determined as 0.27 nM. The same compound yielded an IC95 in series [7] of 25 nM.
On to `CC(C)(C)NC(=O)C1CN(Cc2ccc3occc3c2)CCN1CC(O)CC(Cc1ccccc1)C(=O)NC1c2ccccc2CC1O` (stereo not given), for which the IC95 in series [1] is 100 nM. In addition, in series [2], the IC50 was 1.7 nM.
In the same order, the values of `Cc1cc2oc(CN3CCN(C[C@@H](O)C[C@@H](Cc4ccccc4)C(=O)NC4c5ccccc5C[C@H]4O)[C@H](C(=O)NC(C)(C)C)C3)cc2cn1` (stereo not given in full) are 12 nM and 0.19 nM.
In series [5], `CC(C)(C)NC(=O)[C@@H]1CN(Cc2cnc3occc3c2)CCN1C[C@@H](O)C[C@@H](Cc1ccccc1)C(=O)N[C@H]1c2ccccc2C[C@H]1O` displayed a concentration at 8 h of 9430 nM. In addition, the Cmax in series [3] was found to be 15000 nM. In series [1], the IC95 worked out at 6 nM. Besides, the IC50 in series [2] stood at 0.35 nM.
`CC(C)(C)NC(=O)C1CN(Cc2cc3cccnc3s2)CCN1CC(O)CC(Cc1ccccc1)C(=O)NC1c2ccccc2CC1O` (stereo not given) displayed an IC95 in series [1] of 12.5 nM. In series [2], this compound returned an IC50 of 0.11 nM.
In series [3], `Cc1c(CN2CCN(CC(O)CC(Cc3ccccc3)C(=O)NC3c4ccccc4CC3O)C(C(=O)NC(C)(C)C)C2)oc2ccccc12` (stereo not given) gave a maximum concentration (Cmax) of 408 nM. Moreover, inhibition in series [6] was half-maximal at 0.11 nM (IC50). For the same compound, the 95% effect level in series [7] (IC95) was put at 25 nM.
The compound `CC(C)(C)NC(=O)[C@@H]1CN(Cc2cnc3c(c2)CCO3)CCN1C[C@@H](O)C[C@@H](Cc1ccccc1)C(=O)NC1c2ccccc2C[C@H]1O` (stereo not given in full) displayed a Cmax in series [3] of 160 nM. In addition, in series [1], the IC95 turned out to be 25 nM. The IC50 in series [2] was 0.68 nM.
`CC(C)(C)NC(=O)C1CN(Cc2c[nH]c3ccccc23)CCN1CC(O)CC(Cc1ccccc1)C(=O)NC1c2ccccc2CC1O` (stereo not given): in series [1], the IC95 amounted to 50 nM. In addition, the IC50 in series [2] was 1.7 nM.
Take `CC(C)(C)NC(=O)[C@@H]1CN(Cc2cc3ccccc3o2)CCN1C[C@@H](O)C[C@@H](Cc1ccccc1)C(=O)N[C@H]1c2ccccc2C[C@H]1O` [L 756423]: in series [5], the concentration at 8 h came out at 800 nM. The same compound had a Cmax in series [3] of 28300 nM. This compound also had an IC95 in series [1] of 25 nM. The IC50 in series [2] is 0.18 nM.
The corresponding values for `CC(C)(C)NC(=O)[C@@H]1CN(Cc2cnc3ccoc3c2)CCN1C[C@@H](O)C[C@@H](Cc1ccccc1)C(=O)NC1c2ccccc2C[C@H]1O` (stereo not given in full) are 1550 nM, 9720 nM, 3 nM and 0.17 nM.
For the compound `CC(C)(C)NC(=O)C1CN(Cc2cc3cc(CO)cnc3o2)CCN1CC(O)CC(Cc1ccccc1)C(=O)NC1c2ccccc2CC1O` (stereo not given), the IC50 in series [6] was 0.18 nM. Also, the 95% effect level in series [7] (IC95) was put at 62.5 nM.
In turn, `CC(C)(C)NC(=O)[C@@H]1CN(C(=O)c2cnc3occc3c2)CCN1C[C@@H](O)C[C@@H](Cc1ccccc1)C(=O)NC1c2ccccc2C[C@H]1O` (stereo not given in full) gave a Cmax in series [3] of 130 nM. Moreover, the IC50 in series [6] amounted to 1.7 nM. The same compound returned an IC95 in series [7] of 100 nM.
`COc1ncccc1CN1CCN(C[C@@H](O)C[C@@H](Cc2ccccc2)C(=O)NC2c3ccccc3C[C@H]2O)[C@H](C(=O)NC(C)(C)C)C1` (stereo not given in full) gave a Cmax in series [3] of 515 nM. The same compound came in with a log partition coefficient (logP) in series [4] above 3.84. The compound also showed a concentration for an effect of 95% (IC95) in series [1] of 12 nM. In series [2], this compound displayed an IC50 of 1.1 nM.
`Cc1ccc(CN2CCN(C[C@@H](O)C[C@@H](Cc3ccccc3)C(=O)NC3c4ccccc4C[C@H]3O)[C@H](C(=O)NC(C)(C)C)C2)cn1` (stereo not given in full) had a logP in series [4] of 2.14. The compound further had an IC95 in series [1] of 100 nM. In addition, the IC50 in series [2] is 0.62 nM.
For the compound `CC(C)(C)NC(=O)[C@@H]1CN(Cc2cc3ccsc3s2)CCN1C[C@@H](O)C[C@@H](Cc1cccnc1)C(=O)N[C@H]1c2ccccc2C[C@H]1O`, in series [1], the IC95 was 6 nM. This lies in the single-digit nanomolar range.

The record behind these values is ChEMBL document CHEMBL1133637, “Identification of MK-944a: a second clinical candidate from the hydroxylaminepentanamide isostere series of HIV protease inhibitors” (J Med Chem, 2000).
